Assay results from patent publication US20040018500A1, “Methods and systems for analyzing complex biological systems” (priority 2001, published 2004).

Tests used:
[1] = test system: Saccharomyces cerevisiae wild type strain BY4743; assay: AF1 metabolite analysis (GC-MS, LC-MS) of yeast treated with antifungal drugs; type: cell-based
[2] = test system: Saccharomyces cerevisiae wild type strain BY4743; assay: AF1 combined gene expression and metabolite data mapped to KEGG reactions and pathways; type: cell-based
Description: In AF1, two different technologies were utilized: gene expression analysis (for examination of mRNA expression) and metabolite analysis. […] As noted previously, existing metabolic databases may be helpful in practicing the methods and systems of the present invention, but many databases include limitations that make their use in data analysis and pathway mapping less than straightforward. […] This caveat to KEGG makes it difficult to pinpoint the correct pathway when attempting to link a gene to a specific pathway. […] The pathway score indicates how meaningful the mapping is, or how likely it is to be correctly indicative of the pathway involved in the perturbation under examination. The method provides a pathway score based on perturbation levels of genes and/or compounds and the information content of each gene and/or compound in the pathway, i.e., a pathway score indicates the extent to which other pathways are mapped to a gene/compound. For example, imagine that two genes are perturbed in a particular experiment. One gene maps to only one pathway, giving a high degree of probability that the perturbed pathway is the one identified in the mapping. The second gene maps to three pathways. In the later example, there is only one-third the probability that the pathway identified in the mapping is the one perturbed. The present invention provides a method for calculating the pathway scores, so that more weight is given to a score of a gene or compound that maps to only one pathway than to a score of a gene or compound that maps to multiple pathways. […] Where n=the total number of genes in the pathway; ipath—count=the number of pathways containing a gene; and j=the number of genes in the pathway that are perturbed. Another factor to be considered when weighting a pathway score is the degree of perturbation. Degree of perturbation can be calculated, for example, based on a number of standard deviations from a norm, and included in an equation such as the one shown above, so that not only the number of pathways is taken into account, but also accounts for the amount of gene transcript or compound present as compared to a control. Compounds were also linked to pathways using the KEGG database. […] Of the 676 compounds under consideration, 77 were detected in the AF1 samples. […] The multiple mapping feature of KEGG makes it difficult to pinpoint the correct pathway when trying to link a compound to a specific pathway. […] A pathway score calculation is applied to the compounds to account for both information content (number of pathways a compound maps to) and perturbation level. The data were then combined to determine the number of reactions showing an enzyme and at least one compound perturbed, and to determine the number of pathways having at least one enzyme and one perturbed compound perturbed. The results of the analysis are represented in Tables 16 and 17, and were difficult to interpret, illustrating that the ability to draw conclusions from compound mapping to pathways is limited when absent additional data.

SMILES: CC[C@@H]([C@H](C)O)n1ncn(-c2ccc(N3CCN(c4ccc(OC[C@@H]5CO[C@@](Cn6cncn6)(c6ccc(F)cc6F)C5)cc4)CC3)cc2)c1=O [Posaconazole]
- Fold Change of ornithine3 ([1]; platform GC, p-Value 0.965157424): 0.041
- Fold Change of phosphoenolpyruvate ([1]; platform LC, p-Value 1): 0
- Fold Change of NacetylDglucosamine ([1]; platform nLC, p-Value 1): 0
- Fold Change of NacetylLornithine ([1]; platform nLC, p-Value 1): 0
- Fold Change of orotic acid ([1]; platform nLC, p-Value 1): 0
- Fold Change of phenylpyruvic acid ([1]; platform nLC, p-Value 1): 0
- Fold Change of phosphoenolpyruvate ([1]; platform nLC, p-Value 1): 0
- Fold Change of pinitol ([1]; platform nLC, p-Value 1): 0
- Fold Change of retinoic acid ([1]; platform nLC, p-Value 1): 0
- Fold Change of salicylic/HObenzoic ([1]; platform nLC, p-Value 1): 0
- Fold Change of shikimic acid ([1]; platform nLC, p-Value 1): 0
- Fold Change of sinapinic acid ([1]; platform nLC, p-Value 1): 0
- Fold Change of thymine ([1]; platform nLC, p-Value 1): 0
- Fold Change of urocanic acid ([1]; platform nLC, p-Value 1): 0
- Fold Change of xanthosineDiH2O ([1]; platform nLC, p-Value 1): 0
- Fold Change of zeatin ([1]; platform nLC, p-Value 1): 0
- Fold Change of NacetylLglucosamine ([1]; platform pLC, p-Value 1): 0
- Fold Change of NacetylLglutamate ([1]; platform pLC, p-Value 1): 0
- Fold Change of niacinamide ([1]; platform pLC, p-Value 1): 0
- Fold Change of nopaline ([1]; platform pLC, p-Value 1): 0
- Fold Change of progesterone ([1]; platform pLC, p-Value 1): 0
- Fold Change of riboflavin ([1]; platform pLC, p-Value 1): 0
- Fold Change of sugar-phosphate ([1]; platform pLC, p-Value 1): 0
- Fold Change of thiamine ([1]; platform pLC, p-Value 1): 0
- Fold Change of thymine ([1]; platform pLC, p-Value 1): 0
- Fold Change of tryptophan ([1]; platform pLC, p-Value 1): 0
- Fold Change of uric acid ([1]; platform pLC, p-Value 1): 0
- Fold Change of urocanic acid ([1]; platform pLC, p-Value 1): 0
- Fold Change of xanthosine(diH2O) ([1]; platform pLC, p-Value 1): 0
- Fold Change of zeatin ([1]; platform pLC, p-Value 1): 0
- Number of Reactions Having an Enzyme and at Least One Compound Perturbed [2]: 0

SMILES: CC(=O)N1CCN(c2ccc(OCC3COC(Cn4ccnc4)(c4ccc(Cl)cc4Cl)O3)cc2)CC1 (stereo not drawn) [Ketoconazole]
- # Compounds perturbed ([1]; P < 0.1, yeast, 2×MIC, two hours): 15
- Number of Reactions Having an Enzyme and at Least One Compound Perturbed [2]: 21
